Assay results reported in US10933063B2 (priority 2017, dated 2021).

Target: BTK (Homo sapiens (Human), UniProt Q06187)
Assay: biochemical
Description: Btk kinase activity was determined using a homogenous time resolved fluorescence (HTRF) methodology. Measurements were performed in a reaction volume of 15 μL using 384-well assay plates. Kinase enzyme, inhibitor, ATP and 1 μM peptide substrate were incubated in a reaction buffer compose of Hepes50 mM (pH7.0), NaN3 0.02%, BSA 0.01%, Orthocanadate 0.1 mM. […] For each compound, enzyme activity as measured at various concentrations of compound, Negative control reactions were performed in the absence of inhibitor in two replicates and eight no enzyme controls were used to determine baseline fluorescence levels.

Chain of BTK (Q06187 whole entry, looked up, species assumed): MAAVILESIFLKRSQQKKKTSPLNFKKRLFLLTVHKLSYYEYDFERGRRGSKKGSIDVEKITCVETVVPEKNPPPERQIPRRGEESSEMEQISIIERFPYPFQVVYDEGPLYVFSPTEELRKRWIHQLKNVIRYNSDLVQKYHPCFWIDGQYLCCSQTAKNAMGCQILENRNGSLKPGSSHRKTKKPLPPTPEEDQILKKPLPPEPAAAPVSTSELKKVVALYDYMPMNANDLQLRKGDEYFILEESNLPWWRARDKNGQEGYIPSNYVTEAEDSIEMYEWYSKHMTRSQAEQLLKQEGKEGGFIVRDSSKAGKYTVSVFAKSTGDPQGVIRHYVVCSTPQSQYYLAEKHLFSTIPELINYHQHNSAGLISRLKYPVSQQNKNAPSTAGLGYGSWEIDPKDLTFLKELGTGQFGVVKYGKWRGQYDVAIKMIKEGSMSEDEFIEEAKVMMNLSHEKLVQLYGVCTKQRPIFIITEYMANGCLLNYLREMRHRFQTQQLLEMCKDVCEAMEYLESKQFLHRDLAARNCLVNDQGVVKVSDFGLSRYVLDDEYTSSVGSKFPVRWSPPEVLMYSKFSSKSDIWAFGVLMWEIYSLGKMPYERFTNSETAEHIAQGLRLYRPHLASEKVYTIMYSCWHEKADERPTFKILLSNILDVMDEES

SMILES | IC50 [µM]
CC#CC(=O)N1CCC[C@H]1c1nc(-c2ccc(Oc3cccc(OC)c3F)cc2)c2c(O)nccn12 [Example 35, (S)-1-(2-(1-(4-(2-fluoro-3-methoxyphenoxy)phenyl)-8-hydroxyimidazo[1,5-a]pyrazin-3-yl)pyrrolidin-1-yl)but-2-yn-1-one] | 1 to 10
CC#CC(=O)N1CCC[C@H]1c1nc(-c2ccc(C(=O)Nc3cccc(OC)c3F)cc2)c2cnccn12 [Example 164, (S)-4-(3-(1-(But-2-ynoyl)pyrrolidin-2-yl)imidazo[1,5-a]pyrazin-1-yl)-N-(2-fluoro-3-methoxyphenyl)benzamide] | 1 to 10
CC#CC(=O)N1CCC[C@H]1c1nc(-c2ccc(Oc3ccccc3OC)cc2)c2cnccn12 [Example 24, (S)-1-(2-(1-(4-(2-methoxyphenoxy)phenyl)imidazo[1,5-a]pyrazin-3-yl)pyrrolidin-1-yl)but-2-yn-1-one] | 1 to 10
C=CC(=O)N1CCC[C@@H](c2nc(-c3ccc(C(=O)Nc4ccccn4)cc3)c3cncc(C)n23)C1 [Example 178, (R)-4-(3-(1-acryloylpiperidin-3-yl)-5-methylimidazo [1,5-a]pyrazin-1-yl)-N-(pyridin-2-yl)benzamide] | 0.1 to 1
C=CC(=O)N1CCCC[C@H]1c1nc(-c2ccc(Oc3cccc(Cl)c3F)cc2)c2c(C)nccn12 [Example 42, (S)-1-(2-(1-(4-(3-chloro-2-fluorophenoxy)phenyl)-8-methylimidazo[1,5-a]pyrazin-3-yl)piperidin-1-yl)prop-2-en-1-one] | 0.01 to 0.1
CC#CC(=O)N1CCC[C@H]1c1nc(-c2ccc(OCc3ccc(F)c(F)c3)cc2)c2cnccn12 [Example 134, (S)-1-(2-(1-(4-((3,4-difluorobenzyl)oxy)phenyl)imidazo[1,5-a]pyrazin-3-yl)pyrrolidin-1-yl)but-2-yn-1-one] | 1 to 10
CC#CC(=O)N1CCC[C@H]1c1nc(-c2ccc(COc3cccc(F)c3)cc2)c2cnccn12 [Example 147, (S)-1-(2-(1-(4-((3-fluorophenoxy)methyl)phenyl)imidazo[1,5-a]pyrazin-3-yl)pyrrolidin-1-yl)but-2-yn-1-one] | 1 to 10
CC#CC(=O)N1CCCC[C@H]1c1nc(-c2ccc(COc3cccc(F)c3F)cc2)c2cnccn12 [Example 159, (S)-1-(2-(1-(4-((2,3-difluorophenoxy)methyl)phenyl)imidazo[1,5-a]pyrazin-3-yl)piperidin-1-yl)but-2-yn-1-one] | 1 to 10
COc1cccc(Oc2ccc(-c3nc([C@@H]4CCC5CCC(=O)N5C4)n4ccncc34)cc2)c1F (stereo partly drawn) [Example 213, (6R)-6-(1-(4-(2-fluoro-3-methoxyphenoxy)phenyl)imidazo[1,5-a]pyrazin-3-yl)hexahydroindolizin-3(2H)-one] | 0.1 to 1
CC#CC(=O)N1CCC[C@H]1c1nc(-c2ccc(Oc3cccc(OC)c3C)cc2)c2cnccn12 [Example 21, (S)-1-(2-(1-(4-(3-methoxy-2-methylphenoxy)phenyl)imidazo[1,5-a]pyrazin-3-yl)pyrrolidin-1-yl)but-2-yn-1-one] | 0.1 to 1
CC#CC(=O)N1CCCC[C@H]1c1nc(-c2ccc(COc3ccc(F)c(F)c3)cc2)c2cnccn12 [Example 149, (S)-1-(2-(1-(4-((3,4-difluorophenoxy)methyl)phenyl)imidazo[1,5-a]pyrazin-3-yl)piperidin-1-yl)but-2-yn-1-one] | 1 to 10
C=CC(=O)N1CCC[C@H]1c1nc(-c2ccc(Oc3ccccc3)nc2)c2cnccn12 [Example 4, (S)-1-(2-(1-(6-Phenoxypyridin-3-yl)imidazo[1,5-a]pyrazin-3-yl)pyrrolidin-1-yl)prop-2-en-1-one] | 0.1 to 1
C=CC(=O)N1CCC[C@H]1c1nc(-c2ccc(Oc3cccc(OC)c3F)cc2)c2cnc(C)cn12 [Example 83, (S)-1-(2-(1-(4-(2-fluoro-3-methoxyphenoxy)phenyl)-6-methylimidazo[1,5-a]pyrazin-3-yl)pyrrolidin-1-yl)prop-2-en-1-one] | 0.01 to 0.1
C=CC(=O)N1CCC[C@H]1c1nc(-c2ccc(C(=O)Nc3cccc(OC)c3F)cc2)c2cnccn12 [Example 165, (S)-4-(3-(1-acryloylpyrrolidin-2-yl)imidazo[1,5-a]pyrazin-1-yl)-N-(2-fluoro-3-methoxyphenyl)benzamide] | 0.1 to 1
CC#CC(=O)N1CCC[C@H]1c1nc(-c2ccc(Oc3cccc(OC)c3F)cc2)c2c(CO)nccn12 [Example 123, (S)-1-(2-(1-(4-(2-fluoro-3-methoxyphenoxy)phenyl)-8-(hydroxymethyl)imidazo[1,5-a]pyrazin-3-yl)pyrrolidin-1-yl)but-2-yn-1-one] | 0.1 to 1
C=CC(=O)N1CCC[C@@H](c2nc(-c3ccc(Oc4cccc(OC)c4F)cc3)c3c(C)ncc(C)n23)C1 [Example 76, (R)-1-(3-(1-(4-(2-fluoro-3-methoxyphenoxy)phenyl)-5,8-dimethylimidazo[1,5-a]pyrazin-3-yl)piperidin-1-yl)prop-2-en-1-one] | 0.01 to 0.1
C=CC(=O)N1CCCC[C@H]1c1nc(-c2ccc(C(=O)Nc3ccccn3)cc2)c2cncc(C)n12 [Example 186, (S)-4-(3-(1-acryloylpiperidin-2-yl)-5-methylimidazo [1,5-a]pyrazin-1-yl)-N-(pyridin-2-yl)benzamide] | 0.1 to 1
C=CC(=O)N1CC[C@@H](c2nc(-c3ccc(Oc4cccc(OC)c4F)cc3)c3c(O)nccn23)C1 [Example 113, (R)-1-(3-(1-(4-(2-fluoro-3-methoxyphenoxy)phenyl)-8-hydroxyimidazo[1,5-a]pyrazin-3-yl)pyrrolidin-1-yl)prop-2-en-1-one] | 0.1 to 1
C=CC(=O)N1CCC[C@H]1c1nc(-c2ccc(Oc3cccc(C)c3C)cc2)c2cnccn12 [Example 12, (S)-1-(2-(1-(4-(2,3-dimethylphenoxy)phenyl)imidazo[1,5-a]pyrazin-3-yl)pyrrolidin-1-yl)prop-2-en-1-one] | 0.01 to 0.1
CC#CC(=O)N1CC[C@@H](c2nc(-c3ccc(Oc4cccc(OC)c4F)cc3)c3cncc(OC(C)C)n23)C1 [Example 115, (R)-1-(3-(1-(4-(2-fluoro-3-methoxyphenoxy)phenyl)-5-isopropoxyimidazo[1,5-a]pyrazin-3-yl)pyrrolidin-1-yl)but-2-yn-1-one] | 0.1 to 1
CC#CC(=O)N1CCCC[C@H]1c1nc(-c2ccc(Oc3cccc(F)c3)cc2)c2c(C)nccn12 [Example 56, (S)-1-(2-(1-(4-(3-fluorophenoxy)phenyl)-8-methylimidazo[1,5-a]pyrazin-3-yl)piperidin-1-yl)but-2-yn-1-one] | 0.01 to 0.1
CC#CC(=O)N1CCC[C@H]1c1nc(-c2ccc(OCc3c(F)cccc3F)cc2)c2cnccn12 [Example 137, (S)-1-(2-(1-(4-((2,6-difluorobenzyl)oxy)phenyl)imidazo[1,5-a]pyrazin-3-yl)pyrrolidin-1-yl)bul-2-yn-1-one] | 1 to 10
CC#CC(=O)N1CC[C@@H](c2nc(-c3ccc(Oc4cccc(OC)c4F)cc3)c3c(CO)nccn23)C1 [Example 119, (R)-1-(3-(1-(4-(2-fluoro-3-methoxyphenoxy)phenyl)-8-(hydroxymethyl)imidazo[1,5-a]pyrazin-3-yl)pyrrolidin-1-yl)but-2-yn-1-one] | 0.01 to 0.1
C=CC(=O)N1CCC[C@H]1c1nc(-c2ccc(Oc3cccc(OC)c3F)cc2)c2c(C(N)=O)nccn12 [Example 37, (S)-3-(1-acryloylpyrrolidin-2-yl)-1-(4-(2-fluoro-3-methoxyphenoxy)phenyl)imidazo[1,5-a]pyrazine-8-carboxamide] | 1 to 10
